What is called Km is the substrate concentration at which the rate is half of its maximum. A word on the Vmax: it is the top rate of the reaction or transport when substrate is in excess.

The target of data set [1] is T1, Human expressed AChE (hAChE) (Homo sapiens, UniProt P22303).
T1 construct: recombinant, commercial lyophilized powder (Sigma C1682)
In words: Ellman assay, Michaelis-Menten kinetics with inhibitor. The format is biochemical. The settings on record: acetylthiocholine; 0.5-3 mM compound; pH 7.6; competitive.

In a further data set the test system is T2, Honey bee AChE (AmAChE).
T2 construct: gene AmAChE1; native isolate from nurse bees
Kind of data set: Ellman assay. The format is biochemical, Apis mellifera. The conditions noted are these: no test compound; sodium phosphate pH 7.6, DTNB, ethanol/Tween 20; bee isolate; read-out: KM (× 10^-5 M). From the text:
Ellman assay on Honey bee AChE (AmAChE)
On the technique in general: DTNB colorimetry detects thiols as they appear.

Data set [2] concerns T3, Varroa destructor AChE (VdAChE).
T3 construct: native extract from pre-frozen mites
In words: Ellman assay, […] nm. The format is biochemical. The conditions noted are these: no test compound; sodium phosphate pH 7.6, DTNB, ethanol/Tween 20; mite extract; read-out: KM (× 10^-5 M).

Substrate in the data set “purified protein”: CC(=O)SCC[N+](C)(C)C
In words: purified protein. The format is biochemical, Homo sapiens. The settings on record: no test compound, sodium phosphate pH 7.6, DTNB, ethanol/Tween 20.

Regarding `CCN(CC)C(=O)c1cccc(C)c1` [DEET], the “Ellman assay, Michaelis-Menten kinetics with inhibitor” value in data set [1] was “all three forms of the enzyme, hAChE, AmAChE and VdAChE, were competitively inhibited by DEET”.
`CC(=O)SCC[N+](C)(C)C` [acetylthiocholine iodide]: the results for the Km (in the data set on Honey bee AChE (AmAChE); in data set [2]) were 22 µM and 14 µM, respectively.

B1: Human expressed AChE (hAChE) (Homo sapiens) (protein)
chain: EGREDAELLVTVRGGRLRGIRLKTPGGPVSAFLGIPFAEPPMGPRRFLPPEPKQPWSGVVDATTFQSVCYQYVDTLYPGFEGTEMWNPNRELSEDCLYLNVWTPYPRPTSPTPVLVWIYGGGFYSGASSLDVYDGRFLVQAERTVLVSMNYRVGAFGFLALPGSREAPGNVGLLDQRLALQWVQENVAAFGGDPTSVTLFGESAGAASVGMHLLSPPSRGLFHRAVLQSGAPNGPWATVGMGEARRRATQLAHLVGCPPGGTGGNDTELVACLRTRPAQVLVNHEWHVLPQESVFRFSFVPVVDGDFLSDTPEALINAGDFHGLQVLVGVVKDEGSYFLVYGAPGFSKDNESLISRAEFLAGVRVGVPQVSDLAAEAVVLHYTDWLHPEDPARLREALSDVVGDHNVVCPVAQLAGRLAAQGARVYAYVFEHRASTLSWPLWMGVPHGYEIEFIFGIPLDPSRNYTAEEKIFAQRLMRYWANFARTGDPNEPRDPKAPQWPPYTAGAQQYVSLDLRPLEVRRGLRAQACAFWNRFLPKLLSATDTLDEAERQWKAEFHRWSSYMVHWKNQFDHYSKQDRCSDL
notes: recombinant, commercial lyophilized powder (Sigma C1682)
With B1, in “purified protein”, the Km entry was “(1.0 ± 0.2) × 10^-4 M” and the Vmax worked out at 51 µM/min.

The values are drawn from paper PMC10336134, “Effects of dialkoxybenzenes against Varroa destructor and identification of 1-allyloxy-4-propoxybenzene as a promising acaricide candidate” (Scientific Reports, 2023).
